The results in this text go back to ChEMBL document CHEMBL5335778, “Bench-to-bedside: Innovation of small molecule anti-SARS-CoV-2 drugs in China” (Eur J Med Chem, 2023).

Data set [1] can be described thus: Oral bioavailability in rat. As to conditions: in vivo. The data set is classed as ADME, organism-based.
Data set [2] has as its system Human immunodeficiency virus 1. Put plainly: Antiviral activity against HIV-1 3B infected in human MT4 cells assessed as reduction in virus-induced cytopathic effect incubated for 5 days by MTT assay. Type of data set: functional, organism-based. To be noted: Human immunodeficiency virus 1, 3B, MT4, 120 h.
A short description of data set [3]: Cytotoxicity against human MT4 cells assessed as reduction in cell viability treated for 5 days by MTT assay. The data set is classed as toxicity, cell-based. As to conditions: time 5 day.
The subject of data set [4] is SARS-CoV-2. Briefly: Antiviral activity against SARS-CoV-2 Omicron assessed as reduction of viral growth. The data set is classed as functional, organism-based. To be noted: Severe acute respiratory syndrome coronavirus 2, Omicron.
Data set [5] can be described thus: Cytotoxicity against African green monkey Vero E6 cells assessed as cell growth inhibition measured after 48 hrs by CCK-8 assay. Type of data set: toxicity, cell-based, Vero C1008. As to conditions: chlorocebus sabaeus.
Data set [6] concerns SARS-CoV-2. Briefly: Antiviral activity against SARS-COV-2 infected in African green monkey Vero E6 cells assessed as reduction in viral growth. As to conditions: Severe acute respiratory syndrome coronavirus 2, Vero C1008. The data set is classed as functional, organism-based.
Data set [7] addresses Human immunodeficiency virus type 1 protease (Human immunodeficiency virus 1, UniProt Q72874). Briefly: Inhibition of HIV-1 protease.
Data set [8] concerns Respiratory syncytial virus. Briefly: Antiviral activity against Respiratory syncytial virus. Type of data set: functional, organism-based. To be noted: human respiratory syncytial virus.
The test system of data set [9] is SARS-CoV-2. Put plainly: Antiviral activity against SARS-CoV-2 B.1.1.7 Alpha infected in human Calu-3 cells assessed as inhibition of viral infection preincubated for 1 hr followed by viral infection measured after 48 hrs by Hoechst 33342 staining based analysis. The data set is classed as functional, organism-based. As to conditions: Severe acute respiratory syndrome coronavirus 2, B.1.1.7, Calu-3.

In data set [10] the test system is SARS-CoV-2. Briefly: Antiviral activity against SARS-CoV-2 […] infected in human 293TA cells assessed as reduction of viral growth measured after 48 hrs by luciferase assay. The data set is classed as functional, organism-based. As to conditions: Severe acute respiratory syndrome coronavirus 2, 293TA.
In data set [11] the test system is SARS-CoV-2. Briefly: Antiviral activity against SARS-CoV-2 […] B.1.617.2 delta infected in human 293TA cells assessed as reduction of viral growth measured after 48 hrs by luciferase assay. To be noted: Severe acute respiratory syndrome coronavirus 2, 293TA. Type of data set: functional, organism-based.
Data set [12] can be described thus: Inhibition of DENV RNA-dependent RNA polymerase activity. Set-up: species or system Dengue virus.
Data set [13] is described as follows: Oral bioavailability in Beagle dog at 3 mg/kg. The data set is classed as ADME, organism-based, Canis lupus familiaris. To be noted: in vivo.
Data set [14] relates to SARS-CoV-2. Put plainly: Antiviral activity against SARS-Co-V-2 infected in Vero E6 cells assessed as reduction in viral replication. As to conditions: Severe acute respiratory syndrome coronavirus 2, Vero C1008. The data set is classed as functional, organism-based.
Data set [15] concerns SARS-CoV-2. Briefly: Antiviral activity against SARS-CoV-2 infected in human A549-ACE2 cells. Type of data set: functional, organism-based. To be noted: Severe acute respiratory syndrome coronavirus 2, A549-ACE2.
The next data set concerns Hepatitis C virus. Put plainly: Antiviral activity against HCV infected in human Huh-7.5.1 cells assessed as reduction in viral infection incubated for 48 hrs by MTS assay. The data set is classed as functional, organism-based, Hepacivirus hominis. To be noted: Huh-7.5.1, 48 h.
For data set [16], the system named is SARS-CoV-2. Put plainly: Antiviral activity against SARS-CoV-2 in human A549-ACE2 cells assessed as reduction in viral growth. As to conditions: Severe acute respiratory syndrome coronavirus 2, A549-ACE2. The data set is classed as functional, organism-based.
The subject of data set [17] is SARS-CoV-2. Briefly: Antiviral activity against SARS-CoV-2 B.1 infected in Green monkey VeroE6/TMPRSS2 cells assessed as inhibition of viral replication incubated for 2 days by qRT-PCR analysis. Type of data set: functional, organism-based. To be noted: Severe acute respiratory syndrome coronavirus 2, B.1, VeroE6/TMPRSS2, 48 h.
The subject of data set [18] is SARS-CoV-2. Put plainly: Antiviral activity against luciferase-expressing pseudovirus encoding SARS-CoV-2 Omicron expressing S protein infected in human 293T/ACE2 cells assessed as reduction of viral growth measured after 48 hrs by luciferase assay. The data set is classed as functional, organism-based. As to conditions: Severe acute respiratory syndrome coronavirus 2, 293T/ACE2, 48 h.

The subject of data set [19] is SARS-CoV-2. Put plainly: Antiviral activity against SARS-CoV-2 infected in human A549-ACE2 cells assessed as reduction in viral replication. Type of data set: functional, organism-based. To be noted: Severe acute respiratory syndrome coronavirus 2, A549-ACE2.
The subject of data set [20] is SARS-CoV-2. Put plainly: Antiviral activity against SARS-CoV-2 infected in African green monkey Vero E6 cells assessed as reduction in cell growth. To be noted: Severe acute respiratory syndrome coronavirus 2, Vero C1008. The data set is classed as functional, organism-based.
In data set [21] the test system is SARS-CoV-2. Put plainly: Antiviral activity against SARS-CoV-2 infected in African green monkey Vero E6 cells assessed as reduction in infection measured after 24 hrs by Plaque assay. Type of data set: functional, organism-based. To be noted: Severe acute respiratory syndrome coronavirus 2, Vero C1008, 24 h.
Data set [22] can be described thus: Oral bioavailability in Sprague-Dawley rat at 3 mg/kg by HPLC analysis. Type of data set: ADME, organism-based. To be noted: in vivo.
Data set [23] is described as follows: Oral bioavailability in monkey at 3 mg/kg, HPLC analysis. The data set is classed as ADME, organism-based, Macaca mulatta. As to conditions: rhesus monkey, in vivo.
Data set [24] is described as follows: Oral bioavailability in human at 2 mg. The data set is classed as ADME, organism-based. To be noted: in vivo.
Data set [25] is described as follows: Plasma protein binding in rat assessed as free fraction by equilibrium dialysis analysis. Type of data set: ADME, cell-free.
The nature of data set [26]: Selectivity index, ratio of CC50 for African green monkey Vero cells to EC50 for SARS-COV-2. The data set is classed as cell-based. To be noted: read-out: Ratio CC50/EC50.
Data set [27] is described as follows: Oral bioavailability in rat at 2 mg/kg by LC-MS/MS analysis. The data set is classed as ADME, organism-based. To be noted: in vivo.

`[2H]c1cc([C@]2(C#N)O[C@H](COC(=O)C(C)C)[C@@H](OC(=O)C(C)C)[C@H]2OC(=O)C(C)C)n2ncnc(N)c12` returned a bioavailability in [1] of 49.9%. Moreover, the concentration giving a half-maximal response (EC50) in [2] turned out to be 350 nM. In [3], the 50% cytotoxic concentration (CC50) at 120 h was found to be 280000 nM.

Consider `O=C1C=C(Nc2ccccc2C2CCNCC2)C2=NS(=O)(=O)c3cccc1c32`, for which the concentration giving a half-maximal response (EC50) in the data set with SARS-CoV-2 [4] came to 33 nM.

In the case of `CC[C@H](C)[C@@H](C(=O)O[C@@H](CC(C)C)C(=O)N[C@@H](CC(C)C)C(=O)N[C@@H](C)/C=C/C(=O)N1C(=O)C=C(OC)[C@@H]1C)N(C)C` [GALLINAMIDE A], in [5], the CC50 at 48 h was determined as 88 nM. For the same compound, in the data set on SARS-CoV-2 [6], the EC50 worked out at 28 nM.

For the compound `[2H][C@](C(=O)N[C@@H](C)c1ccc(F)cc1)(c1cccnc1)N(C(=O)C(C)=O)c1ccc2c(c1)oc1ccccc12`, the EC50 with SARS-CoV-2 [4] is 33 nM.

In turn, `[N-]=[N+]=N[C@]1(CO)O[C@@H](n2ccc(N)nc2=O)[C@H](O)[C@@H]1O` [4'-AZIDOCYTIDINE] returned an IC50 in data set [7] of 1280 nM.

Compound `N#C[C@@]1(c2ccc3c(N)ncnn23)O[C@H](COP(=O)(O)OP(=O)(O)OP(=O)(O)O)[C@@H](O)[C@H]1O` [RDV-TP] returned an EC50 in [8] of 13 nM.

In the case of `O=C[C@H](C[C@@H]1CCNC1=O)NC(=O)[C@@H]1[C@H]2CCC[C@H]2CN1C(=O)CCc1cc(F)cc(F)c1`, the EC50 in the data set on SARS-CoV-2 [4] amounted to 33 nM.

As to `O=C[C@H](C[C@@H]1CCNC1=O)NC(=O)[C@H](CC1CCCCC1)NC(=O)c1cc2ccccc2[nH]1`, the EC50 was 33 nM in the data set with SARS-CoV-2 [4], 390 nM in the data set on SARS-CoV-2 [9], 280 nM with SARS-CoV-2 [10] and 270 nM in the data set with SARS-CoV-2 [11].

As to `Br.[2H]c1cc([C@]2(C#N)O[C@H](COC(=O)C(C)C)[C@@H](OC(=O)C(C)C)[C@H]2OC(=O)C(C)C)n2ncnc(N)c12` [DEUREMIDEVIR HYDROBROMIDE], the EC50 in data set [12] and in [2] was 240 nM in each case. The bioavailability in data set [13] and in [1] was 80% throughout.

Turning to `COc1ccc2cc1Oc1ccc(cc1)C[C@H]1c3c(cc4c(c3Oc3cc5c(cc3OC)CCN(C)[C@@H]5C2)OCO4)CCN1C` [CEPHARANTHINE], the EC50 with SARS-CoV-2 [14] came to 980 nM. Besides, the IC50 was found to be 240 nM in the data set on SARS-CoV-2 [15], 60 nM in the data set with Hepatitis C virus, 240 nM in the data set on SARS-CoV-2 [16] and 1900 nM with SARS-CoV-2 [17].

As to `CC[C@H](C)[C@H]1NC(=O)[C@@H](NC(=O)[C@@H](CC(C)C)N(C)C(=O)[C@@H]2CCCN2C(=O)C(C)=O)[C@@H](C)OC(=O)[C@H](Cc2ccc(OC)cc2)N(C)C(=O)[C@@H]2CCCN2C(=O)[C@H](CC(C)C)NC(=O)[C@@H](C)C(=O)[C@H](C(C)C)OC(=O)C[C@@H]1O` [PLITIDEPSIN], the figures for the EC50 in the data set with SARS-CoV-2 [18], in the data set with SARS-CoV-2 [19] and in the data set with SARS-CoV-2 [20] were 350 nM, 100 nM and 0.7 nM, respectively.

With `Nc1ncnc2c1ccn2[C@@H]1O[C@H](CO)[C@@H](O)[C@H]1O` [TUBERCIDIN], the EC50 in the data set with SARS-CoV-2 [21] turned out to be 590 nM.

As for `N#C[C@@]1(c2ccc3c(N)ncnn23)O[C@H](CO)[C@@H](O)[C@H]1O` [GS-441524], the bioavailability in data set [22] was 16%; in data set [23] it was less than 8%; in [24] it was 13%; in [27], 50%. Moreover, the fraction unbound in data set [25] came out at 0.62. For the same compound, the EC50 stood at 390 nM in the data set on SARS-CoV-2 [21] and 590 nM in data set [2]. The selectivity ratio in [26] is more than 1280. In [3], the CC50 at 120 h is more than 500000 nM.
